We go through eight compounds from EP4792811A1, “S1PR4 REGULATOR COMPOUND FOR MUSCLE DISEASE TREATMENT AND APPLICATION THEREOF” (Shengyuan Zetong (Shanghai) Pharmaceutical Co., Ltd, priority 2023, dated 2025).

Residue numbers refer to the chain shown, from its start. Entries after “also recorded” stand apart in the source; their conditions may differ.

In one assay the target is T1, hS1P4 (Homo sapiens, UniProt O95977).
T1 construct: expressed in transfected cells; host or cells: CHO-K1
T1 sequence (O95977 1-384): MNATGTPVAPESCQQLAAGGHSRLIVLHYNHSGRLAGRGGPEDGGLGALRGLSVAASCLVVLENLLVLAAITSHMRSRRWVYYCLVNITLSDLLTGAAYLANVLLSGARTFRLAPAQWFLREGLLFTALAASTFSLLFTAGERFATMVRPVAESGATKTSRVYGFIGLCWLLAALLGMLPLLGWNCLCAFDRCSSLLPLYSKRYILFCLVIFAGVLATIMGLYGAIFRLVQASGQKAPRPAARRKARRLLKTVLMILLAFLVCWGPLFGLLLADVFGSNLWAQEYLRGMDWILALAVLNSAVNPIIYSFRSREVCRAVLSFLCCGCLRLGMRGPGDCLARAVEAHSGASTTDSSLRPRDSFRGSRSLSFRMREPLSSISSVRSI
In words: Tango β-arrestin recruitment assay, Tango-hS1P4-CHO. The format is cell-based. The following applies: final concentration 45 µM, 9 serial dilutions at 5-fold intervals; 20 h drug treatment; luciferase readout. From the text: (§1) The Tango assay detects ligand-dependent GPCR activity through the interaction between β-arrestin and GPCRs. […] The NTEV fragment and the tetracycline transactivator (tTA), an artificial transcription factor, are fused at the C-terminus of the GPCR, while the CTEV fragment is fused to human β-arrestin 2. To enhance the stability of the interaction between GPCR and β-arrestin, a short sequence from the C-terminus of the human arginine vasopressin receptor 2 (V2 tail) is inserted between the GPCR and NTEV. The V2 tail contains multiple GRK phosphorylation sites, which strengthen β-arrestin binding upon phosphorylation. The CTEV fragment carries the stabile point mutation S219P and is truncated at residue 221 to remove the autoinhibitory C-terminal tail. Meanwhile, β-arrestin 2 is truncated to lack the entire C-terminal tail (residues 383-410 deleted). This truncation confers robust stimulus-dependent receptor desensitization, thereby improving detection sensitivity compared with wild-type β-arrestin 2. The UAS reporter construct consists of upstream activating sequence (UAS) elements, a minimal CMV promoter, and a tTA-dependent luciferase reporter gene. Therefore, constructing Tango cells requires the co-transfection of the above three plasmids into host cells. Upon GPCR activation and β-arrestin recruitment, the TEV enzyme at the β-arrestin terminus cleaves tTA from the GPCR C-terminus. The released tTA initiates tTA-dependent luciferase transcription, and compound activity is ultimately determined by measuring luminescence intensity.
(§2) • 1) Tango cell line from was digested from the culture dish respectively. After cell counting, the cells were plated at a density of 10,000 cells per well with […] into a white opaque 96-well plate (add 60 µL D'Hanks to the surrounding wells), and incubated overnight (20 h) in a 5% CO2 incubator at 37°C. The cell density will reach approximately 90% the next day. • 2) After 20 h, 30 µL of serially diluted compound solution was added to each well. The control group was supplemented with 30 µL F12K complete medium. Each group had three replicate wells. • 3) Samples were collected after 20 h of drug treatment.
(§3) (All compounds were tested at a final concentration of 45 µM, with 9 serial dilutions at 5-fold intervals. 1 µM BAF-312 was used as the positive control for S1PR1, and 25 µM BAF-312 was used as the positive control for S1PR4.)
(§4) ^a β-arrestin recruitment activity based on Tango-S1PR1-CHO-K1 and Tango-S1PR4-CHO-K1 cells, expressed as mean EC50 values ± SD. ^b FLIPR assays were performed using S1PR2-CHO and S1PR5-CHO cell lines, expressed as mean EC50 values ± SD. ^c β-arrestin recruitment activity based on PathHunter CHO-K1-S1PR3 cells, expressed as mean EC50 values ± SD. Data are the mean of at least two independent determinations, reported as mean ± SD (standard deviation).

The target in another assay is T2, hS1P4-R-79C (Homo sapiens, UniProt O95977, R79C).
T2 construct: expressed in transfected cells; host or cells: CHO
T2 sequence (O95977 1-384 R79C): T1 sequence (O95977 1-384) with R79C
In words: Tango β-arrestin recruitment assay, Tango-hS1P4-R-79C-CHO. The format is cell-based. The following applies: final concentration 45 µM, 9 serial dilutions at 5-fold intervals; 20 h drug treatment; luciferase readout.
Source text: as §1, §2, §3

For another assay, the target named is T3, hS1P1 (Homo sapiens, UniProt P21453).
T3 construct: expressed in transfected cells; host or cells: CHO-K1
T3 sequence (P21453 whole entry): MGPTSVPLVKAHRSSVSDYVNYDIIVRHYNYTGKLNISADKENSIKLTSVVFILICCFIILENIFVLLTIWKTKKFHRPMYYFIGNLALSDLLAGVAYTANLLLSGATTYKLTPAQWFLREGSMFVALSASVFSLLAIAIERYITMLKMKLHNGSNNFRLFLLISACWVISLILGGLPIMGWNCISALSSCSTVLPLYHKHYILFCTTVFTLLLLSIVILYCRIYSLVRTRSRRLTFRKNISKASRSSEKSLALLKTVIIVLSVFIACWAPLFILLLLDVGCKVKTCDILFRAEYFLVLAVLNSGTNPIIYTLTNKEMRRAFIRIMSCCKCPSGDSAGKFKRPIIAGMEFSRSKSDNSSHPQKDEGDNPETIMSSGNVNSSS
In words: Tango β-arrestin recruitment assay, Tango-hS1P1-CHO. The format is cell-based. The following applies: final concentration 45 µM, 9 serial dilutions at 5-fold intervals; 20 h drug treatment; luciferase readout.
Source text: as §1, §2, §3, §4

The target of the next assay is T4, S1PR4 (Homo sapiens, UniProt O95977).
T4 construct: expressed in transfected cells; host or cells: 293T
T4 sequence (O95977 1-384): T1 sequence (O95977 1-384)
In words: S1PR4 internalization function test in S1PR4-293T cells. It is filed as cell-based. The following applies: 1 µM, 37 °C, 1.5 hours; detected immediately, or at 5 hours or 20 hours after treatment. The protocol: Therefore, the recovery degree of S1PR4 after internalization caused by Compound 30 was evaluated, and the recovery effect following receptor internalization caused by Compound 30 was assessed in cells with high S1PR4 expression.

A further assay has as its system LPS-induced sepsis model. In words: LPS-induced sepsis myopathy (skeletal muscle atrophy) model. The format is in vivo, mice. The following applies: 14 days of LPS treatment. An excerpt: Animal models of sepsis can be established by injecting exogenous toxins into animals. In this study, a sepsis model was established via intraperitoneal injection of lipopolysaccharide to observe the effects of compounds on the occurrence and development of acquired weakness. This is a widely used method for modeling sepsis.
A skeletal muscle atrophy model induced by lipopolysaccharide can simulate clinical muscle atrophy caused by sepsis.
Mice were given a single intraperitoneal injection of LPS (1 mg/kg), followed by 14 consecutive days of intraperitoneal injection of either vehicle (1% DMSO dissolved in physiological saline) or Compound 30. Body weight was measured daily. After 14 days of LPS treatment, the mice were anesthetized, and the gastrocnemius and tibialis anterior muscles were harvested.

The test system of assay [1] is Duchenne muscular dystrophy model mice. In words: In vivo efficacy in Duchenne muscular dystrophy mdx mice (Compound 67). The following applies: for rotarod time: Day 42; for rotarod time / grip strength: compared with the model group; for grip strength: after 42 days of treatment. The protocol: Experimental animals: A total of 18 Duchenne muscular dystrophy model mice were divided into 3 groups with 6 mice in each group.
Intragastric administration was initiated on Day 0. Body weight was measured daily during the period to adjust the drug dosage. Grip strength and rotarod tests were performed on Day 20 and Day 42. Changes in the limb grip strength, exercise duration, and muscle fibrosis/inflammation in mice were detected as indicators for evaluating drug efficacy.
The mouse was placed horizontally on the grip test board. The mouse's tail was held and pulled gently in the opposite direction without using excessive force. The tail was gradually pulled until the mouse released the grip force sensor. The maximum value recorded by the grip force sensor is the grip strength. The test was repeated for 3 times and the average value was taken.
The rotarod test was conducted on Day 0, Day 20, and Day 42 respectively. The test was performed at an accelerating speed (0-16 rpm), reaching the maximum speed after 300 seconds, with a maximum test duration of 600 seconds. The time until the animal fell off was recorded^7.
After the experiment, the tibialis anterior, extensor digitorum longus, and diaphragm of the mice were harvested, fixed, sectioned, and subjected to HE staining and Sirius Red staining to observe the degree of muscle fibrosis.

The mark [2] stands for this setting: 3 mg/kg intragastric once daily.
Setting [3] is: 20 mg/kg intragastric once daily.

Regarding `C/C(=N\OCc1ccc(C2CCCCC2)c(C(F)(F)F)c1)c1ccc(CNCCC(=O)O)cc1` [Compound 10, (E)-3-((4-((1-((4-cyclohexyl-3-(trifluoromethyl)benzyl)oxy)imino)ethyl)benzyl)amino)propanoic acid], the values for the 50% effective concentration (EC50) at hS1P4 and on hS1P4-R-79C were 262 ± 37.3 nM and 160 ± 4.9 nM, respectively.
Consider `CCc1cc(/C(C)=N/OCc2ccc(C3CCCC3)c(C(F)(F)F)c2)ccc1CN1CC(C(=O)O)C1` [Compound 17], for which the EC50 (commonly the concentration giving half of the maximal effect) at hS1P1 is 2.21 ± 0.58 nM; on hS1P4-R-79C, 95.6 ± 42.1 nM.
As for `C/C(=N\OCc1ccc(C2CCCCC2)c(C(F)(F)F)c1)c1ccc(CN2CC(C(=O)O)C2)c(C)c1` [Compound 18], the EC50 worked out at 2.95 ± 0.69 nM at hS1P1, 266 ± 62.8 nM on hS1P4 and 63.1 ± 21.8 nM at hS1P4-R-79C.
On to `C/C(=N\OCc1ccc(C2CCCCC2)c(C(F)(F)F)c1)c1ccc(CN2CC(C(=O)O)C2)c(C(F)(F)F)c1` [Compound 19], for which the results for the EC50 at hS1P1, at hS1P4 and on hS1P4-R-79C were 8.63 ± 0.39 nM, 564 ± 184 nM and 121 ± 30.4 nM, respectively.
With `CCc1cc(/C(C)=N/OCc2ccc(-c3ccccc3)c(C)c2)ccc1CNCCCC(=O)O` [Compound 32, (E)-4-((2-ethyl-4-(1-((2-methyl-[1,1'-biphenyl]-4-yl)methoxy)imino)ethyl)benzyl)aminobutyric acid], the EC50 on hS1P4-R-79C was 110 ± 6.85 nM.
On to `CCc1cc(/C(C)=N/OCc2ccc(-c3cnc(F)cn3)c(C)c2)ccc1CN1CC[C@H](C(=O)O)C1` [Compound 67, (S, E)-1-(2-ethyl-4-(1-(((4-(5-fluoropyrazin-2-yl)-3-methylbenzyl)oxy)imino)ethyl)benzyl)pyrrolidine-3-carboxylic acid], for which the “S1PR4 internalization (expression of S1PR4 receptor on the cell surface)” value on S1PR4 is recorded as “sustained internalization capacity”. The “atrophy of the tibialis anterior muscle” value in the assay on LPS-induced sepsis model (high dose (Compound 30: 10mg/kg intraperitoneal once daily)) is “significantly inhibited”. The “atrophy of the tibialis anterior muscle” value with LPS-induced sepsis model (medium dose (Compound 30: 1mg/kg intraperitoneal once daily)) is given as “significantly inhibited”. In assay [1] (setting [2]), the “collagen deposition (collagen area ratio)” value was “significantly reduced collagen deposition”; the “macrophage levels (F4/80 macrophage marker, muscle inflammation)” value is reported as “significantly reduced macrophage levels”; the “number of centrally nucleated fibers (HE staining)” value is “significantly reduced”; the “serum creatine kinase level” value is reported as “significantly reduced the creatine kinase level”. In assay [1] (setting [2]), the rotarod time entry is given as “increased” and the grip strength result is “marked increase; also recorded: significantly elevated”. In addition, the grip strength entry in assay [1] (3 mg/kg intragastric once daily, listed as compound 67) is “increased significantly”.
As to `CCCCCCCCCCCCC/C=C/[C@@H](O)[C@@H](N)COP(=O)(O)O` [Compound S1P, sphingosine 1-phosphate, reference compound], the “S1PR4 internalization (expression of S1PR4 receptor on the cell surface)” value on S1PR4 is recorded as “can induce S1PR4 internalization”.
For `C[C@@H]1C[C@H]2[C@@H]3CCC4=CC(=O)C=C[C@]4(C)C3=CC[C@]2(C)[C@@]1(O)C(=O)CO` [Vamorolone, reference compound], in assay [1] (setting [3]), the “collagen deposition (collagen area ratio)” value is listed as “significantly reduced collagen deposition”; the “macrophage levels (F4/80 macrophage marker, muscle inflammation)” value is on record as “significantly reduced macrophage levels”; the “number of centrally nucleated fibers (HE staining)” value is “significantly reduced”; the “serum creatine kinase level” value is “significantly reduced the creatine kinase level”. For the same compound, in assay [1] (setting [3]), the rotarod time result was “increased” and the grip strength result is recorded as “increased significantly; also recorded: marked increase; also recorded: significantly elevated”.
